From patent publication US8241842B2, “Methods and devices for measuring diffusion by magnetic resonance imaging” (California Institute of Technology, priority 2003, dated 2012)
Values joined by “and” are separate entries in the source; they are usually repeats but may differ in a detail not shown here. Equal values may be shown once. Read-outs that look alike come from different tables or passages of the source.

Legend:
[1] = MRI of D2O/H2O exchange across a membrane in the membrane cell (Example 1B, FIG. 2); format: physicochemical; conditions: signal difference between chambers over 64 minutes; upper chamber deuterium oxide saline, lower water saline; 12 micron pore-size polycarbonate membrane
Text: A 5 mm diameter membrane tissue sample is mounted between two layers of 125 micron pore-size nylon mesh. The tissue sample assembly is then mounted in the central recess of the cell base and the cell cap is tightened onto the base using three M2.5 nylon screws. O-rings mounted into the cap and base prevent fluid leakage between the upper and lower central chambers. The central well of the base is filled with water or saline water with the cell inverted. The base well is then sealed with impermeable adhesive tape. The central well of the upper chamber is filled with deuterium oxide (D2O) or D2O saline and sealed with impermeable adhesive tape as before.
D2O gives no signal in conventional ^1H MRI, and thus acts as a negative marker. The diffusional permeability can then be calculated from either the mean signal time-courses in the upper and lower chambers using conventional mass transport equations assuming that signal intensity is proportional to water concentration.
FIG. 2 provides the results of experiments on D2O-concentration related signal changes in two chambers, one initially containing D2O, the other with H2O. Cross-sectional T1-weighted magnetic resonance image through the membrane cell during permeability testing of a single layer of 12 micron pore-size polycarbonate membrane. Images at (a) time=0 minutes and (b) 64 minutes are shown. Images were acquired every 256 seconds. […]

[2] = MRI of D2O/H2O exchange across a membrane in the membrane cell (Example 1A, FIG. 1); format: physicochemical; conditions: Water/D2O chamber signal ratio vs time, best fit exponential; one chamber initially D2O, the other H2O
Text: D2O gives no signal in conventional 1H MRI, and thus acts as a negative marker. The diffusional permeability can then be calculated from the signal time-course using conventional mass transport equations assuming that signal intensity is proportional to water concentration.
FIG. 1 provides the results of experiments on D2O-concentration related signal changes in two chambers, one initially containing D2O, the other with H2O.

[3] = MRI of gadolinium chelate diffusion across a membrane (Example 3, FIG. 5); format: physicochemical; conditions: exponential fit to signal difference between chambers; upper chamber initially 1 mM gadolinium chelate, lower chamber water
Protocol: FIGS. 5A-5C provide the results of experiments on gadolinium chelate-concentration related signal changes in two chambers. (a) MR image of the membrane cell with the upper chamber initially containing 1 mM gadolinium chelate (Prohance® (gadoteridol), Bracco Diagnostics Inc., Princeton N.J.) and the lower chamber containing water. Signal enhancement due to the gadolinium chelate can be indicated by red false coloring. (b) the mean signal time course within the regions of interest indicated by black boxes in (a). The signal difference between the chambers has been fitted to an exponential and has a time-constant of approximately 158 minutes. The concentration time course in each chamber would require signal-concentration calibration. […] This effect would not be readily detected by non-imaging methods.
Gadolinium chelates of various molecular weights (e.g. […]) may be used as MR detectable tracers which alter the T1 relaxation time of the surrounding water and thus imparts contrast to the image. […] If the upper chamber is initially filled with a dilute aqueous solution of the chelate, and the lower chamber is filled with water, the diffusional permeability of the membrane may be estimated from the time course of either (a) the mean signal within each chamber or (b) the spatial variation of chelate above and below the membrane as determined by calibrated MR images. […]

[4] = from mean signal ratio between chambers; one saturated with oxygen, the other with argon; 0.4 μm polycarbonate film
Text: (§1) This sample assembly is then inserted in the upper circular recess of the membrane cell base. The membrane cell washer is then placed over the sample assembly and the membrane cell cap screwed onto the base, tightening the washer onto the sample assembly. The upper central well in the membrane cell cap is then filled with inert gas (e.g. argon or nitrogen) saturated aqueous solution and sample placed in the magnetic resonance imaging system.
(§2) Sequential T1-weighted magnetic resonance images are acquired of a midline slice through the membrane cell, parallel to the long-axis of the cell.
(§3) The generalized exponential decay to equilibrium in two chamber system, including systematic drift function F(t) is given by: SA(t)=F(t)[SA(∞)+(SA(0)−SA(∞))e^−t/Tc] SB(t)=F(t)[SB(∞)+(SB(∞)−SB(0))e^−t/Tc] Taking the ration of the two signals eliminates the systematic drift allowing the time-constant for the transport across the membrane to be determined from the MRI signal time-course, as follows:
The dividing membrane was 0.4 μm pore-size polycarbonate film.

[5] = from mean signal ratio between chambers; one saturated with oxygen, the other with argon; fresh Bruch's membrane
Text: as §1, §2
as §3, with “follows: […]” for “follows:”

With [2H]O[2H] [D2O, deuterium oxide] the “time-constant of the fitted exponential decay (index of membrane permeability)” value [1] was 40.7 min and the “time constant for the exchange” value [2] was “approximately 17.3 minutes”.

In the case of CC(O)CN1CCN(CC(=O)[O-])CCN(CC(=O)[O-])CCN(CC(=O)[O-])CC1.[Gd+3] (centres unmarked) [Prohance, gadoteridol], the time-constant [3] was “approximately 158 minutes”.

For O=O [oxygen], the time-constant [4] was 59.8 min and 54.9 min and the time-constant [5] was 67.7 min.
